Test results from patent US6153604A, “Therapeutic substituted guanidines” (Cambridge NeuroScience, Inc., priority 1995, dated 2000).
Structures can show the parent of a compound that is named as a salt.

How the values were obtained:
[1] = tested on: NMDA-induced excitotoxic damage to the central nervous system; experiment: In vivo assay for protection against NMDA-induced excitotoxic damage to the central nervous system; set-up: species or system rat (Day 7 neonatal); settings: Rattus norvegicus, ip, 120 h, intraperitoneal; for inhibition in vivo at 60 µmol/kg: dose 60 μmol/kg; for inhibition in vivo at 60 µmol/kg / inhibition in vivo at 30 µmol/kg: read-out: % maximum protection per dose; for ED80: 15 minutes after intrastriatal NMDA, neonatal rats, read-out: ED80 (dose that provides 80% of the maximum protection); for inhibition in vivo at 30 µmol/kg: dose 30 μmol/kg
Description: In vivo assay for protection against NMDA-induced excitotoxic damage to the central nervous system.
The in vivo potency of compounds of the present invention is exemplified by data summarized in Table II and obtained pursuant to the following protocol. Day 7 neonatal rats were anesthetized with metophane inhalation anesthetic for 4-6 minutes, inserted into a stereotaxic apparatus and injected intrastriatally with 0.5 μl of 50 mM NMDA (N-methyl-D-aspartate). 15 minutes after the NMDA injection, the rat pups were injected intraperitoneally with 10, 30 or 60 μmol/kg of the NMDA antagonist of the structure specified in Table II Animals were returned to their mother and watched for signs of distress (e.g., respiratory depression). After five days, the animals were anesthetized with CO2 and then decapitated; their brains were removed and weighed to determine the degree of neuroprotection. Because NMDA injection results in a retardation of brain growth (including necrosis), effects can be measured gravimetrically in terms of the weights of injected and non-injected hemispheres. Two groups of rat pups were used at each of three doses of a compound to generate a neuroprotection dose-response curve. The chemical structure of each of the tested compounds is specified below with the general formula of the compounds shown at the top of Table II with particular substituent groups specified within that Table. Table II discloses 1) the ED80 for each tested compound, i.e., the dose of a compound that provides 80% of the maximum protection against damage to the central nervous system; and 2) the percent (%) maximum protection against damage to the central nervous system provided by the indicated dose expressed as μmol per kilogram bodyweight of the test subject.

sigma receptor = experiment: Sigma receptor binding assay ([3H]DTG, guinea pig brain membrane homogenates); settings: displacement of [3H]DTG, guinea pig brain membranes
Description: Sigma Receptor Binding Assay
Briefly, frozen whole guinea-pig brains (Biotrol, Indianapolis, Ind.) were homogenized in 10 volumes (w/v) of ice-cold 320 mM sucrose using a Brinkman polytron. The homogenate was centrifuged at 1,000×g for 20 minutes at 4° C. The supernatant was centrifuged at 20,000×g for 20 minutes at 4° C. The resulting pellet was resuspended in 10 initial volumes of 50 mM Tris/HCl buffer at pH 7.4 and centrifuged at 20,000×g for 20 minutes at 4° C. The resulting pellet was resuspended in 5 initial volumes ice-cold 50 mM Tris/HCl (pH 7.4), and the final volume was adjusted to yield a protein concentration of 3 mg/ml. Aliquots of 20-ml were stored at -70° C. until used, with no detectable loss of binding.
The protein concentration in the 1-ml final incubation volume was 800 μg/ml, corresponding to 32 mg of brain tissue (original wet weight) and to a tissue concentration within the linear range for specific binding. […] Incubations were terminated after 90 minutes at room temperature by addition of 4 ml of ice-cold 50 mM Tris/HCl (pH 7.4) and rapid filtration of the membrane suspension through Whatman GF/B glass-fiber filters under vacuum, using a 48-well cell harvester (Brandel). The filters were washed 2 times with 4 ml of 50 mM Tris/HCl (pH 7.4). […] IC50 values were determined by non-linear regression analysis.

PCP receptor = PCP receptor radioligand binding assay ([3H]MK-801, rat brain membranes); settings: read-out: [3H-MK801] IC50; displacement of [3H]MK-801, rat brain membranes
[2] = tested on: rat model of Korsakoff's disease; settings: pretreatment of animals; cited from earlier work

Row | Structure (SMILES) | inhibition in vivo at 60 µmol/kg [1] [%] | ED80 [1] [µmol/kg] | IC50 (sigma receptor) [nM] | IC50 (PCP receptor) [nM] | further results
1 | CCc1cccc(N(C)C(=N)Nc2cc(Cl)ccc2Cl)c1 [Cmpd. No. 1 (Table II), N-(3-ethylphenyl)-N-methyl-N'-(2,5-dichlorophenyl)guanidine hydrochloride] | 88.8 | 36.4 | – | – | –
2 | CCc1cccc(N(C)C(=N)Nc2cc(Br)ccc2Br)c1 [Cmpd. No. 2 (Table II), N-(3-ethylphenyl)-N-methyl-N'-(2,5-dibromophenyl)guanidine hydrochloride] | 93.8 | 13.4 | – | – | –
3 | CCc1cccc(NC(=N)Nc2cc(C(F)(F)F)ccc2F)c1 [Cmpd. No. 3 (Table II), N-(3-Ethylphenyl)-N'-(2-fluoro-5-trifluoromethylphenyl)guanidine hydrochloride] | 76.6 | 15.2 | – | – | –
4 | CCc1cccc(N(C)C(=N)Nc2cc(CC)ccc2Cl)c1 [Cmpd. No. 4 (Table II), N-(3-Ethylphenyl)-N-methyl-N'-(2-chloro-5-ethylphenyl)guanidine hydrochloride] | 77.8 | 19.8 | – | – | –
5 | CCc1ccc(Cl)c(N(C)C(=N)Nc2cccc3ccccc23)c1 [Cmpd. No. 5 (Table II), N-(1-Naphthyl)-N'-(2-chloro-5-ethylphenyl)-N'-methylguanidine hydrochloride] | 92.2 | 22.3 | – | – | –
6 | Cc1ccc(C)c(N(C)C(=N)Nc2cccc3ccccc23)c1 [Cmpd. No. 7 (Table II), N-(1-Naphthyl)-N'-(2,5-dimethylphenyl)-N'-methylguanidine hydrochloride] | – | 22.5 | – | – | inhibition in vivo at 30 µmol/kg [1]: 86%
7 | N=C(Nc1cc(C(F)(F)F)ccc1F)Nc1cccc2ccccc12 [Cmpd. No. 8 (Table II), N-(1-Naphthyl)-N'-(2-fluoro-5-trifluoromethylphenyl)guanidine hydrochloride] | 96 | 28.8 | – | – | –
8 | CSc1ccc(Cl)c(NC(=N)Nc2cccc3ccccc23)c1 [Cmpd. No. 9 (Table II), N-(1-Naphthyl)-N'-(2-chloro-5-thiomethylphenyl)guanidine hydrochloride] | 92.7 | 10.8 | – | – | –
9 | Cc1ccc(Cl)c(NC(=N)Nc2cccc3ccccc23)c1 [Cmpd. No. 10 (Table II), N-(1-Naphthyl)-N'(2-chloro-5-methylphenyl)guanidine hydrochloride] | 96.4 | 45.8 | – | – | –
10 | CCc1ccc(Cl)c(NC(=N)Nc2cccc3cccnc23)c1 [Cmpd. No. 11 (Table II), N-(8-Quinolinyl)-N'-(2-chloro-5-ethylphenyl)guanidine hydrochloride] | – | 14.2 | – | – | inhibition in vivo at 30 µmol/kg [1]: 94.5%
11 | CCc1ccc(Cl)c(NC(=N)N(C)c2cccc(C(F)(F)F)c2)c1 [Compd. No. 67 (Table I), N-(3-Trifluoromethylphenyl)-N-methyl-N'-(2-chloro-5-ethylphenyl)guanidine hydrochloride] | – | – | 200 | 77 | –
12 | CSc1ccc(Br)c(NC(=N)N(C)c2cccc(C(F)(F)F)c2)c1 [Compd. No. 69 (Table I), N-(3-Trifluoromethylphenyl)-N-methyl-N'-(2-bromo-5-methylthiophenyl)guanidine hydrochloride] | – | – | 631 | 5.55 | –
13 | CCc1ccc(Br)c(NC(=N)N(C)c2cccc(C(F)(F)F)c2)c1 [Compd. No. 70 (Table I), N-(3-Trifluoromethylphenyl)-N-methyl-N'-(2-bromo-5-ethylphenyl)guanidine hydrochloride] | – | – | 166 | 20.4 | –
14 | CN(C(=N)Nc1cc(Br)ccc1Br)c1cccc(C(F)(F)F)c1 [Compd. No. 71 (Table I), N-(3-Trifluoromethylphenyl)-N-methyl-N'-(2,5-dibromophenyl)guanidine hydrochloride] | – | – | 224 | 34 | –
15 | CCc1cccc(NC(=N)Nc2cc(C(F)(F)F)ccc2F)c1 [Compound 5] | – | – | 14.8 | 98.9 | –
16 | CSc1ccc(Cl)c(NC(=N)N(C)c2cccc3cccnc23)c1 [Compound 79] | – | – | 542 | 22.3 | –
17 | C[C@]12N[C@H](Cc3ccccc31)c1ccccc12 [MK-801, (+)-5-methyl-10,11-dihydro-5H-dibenzo[a,d]cycloheptene-5,10-imine] | – | – | – | – | extent of cell loss, hemorrhages and amino acid changes [2]: markedly attenuates the extent of cell loss, hemorrhages and amino acid changes
